# Assays:
# [1] = test system: IL-4; assay: IL-4 expression in B-6 splenocytes, flow cytometry; assay type: cell-based; settings: 2 to 5 micrograms selenium/mL, 48 hours, compared with 1,3-glucose hexasaccharide
# Experimental: (§1) B-6 splenocytes were used as the experimental model. Carrageenan, chitohexaose, 1,3-glucose hexasaccharide, PMA+innomycin were used as controls and incubated in the culture medium containing the esterified selenium polysaccharide of the present invention (2 to 5 micrograms selenium/mL) for 48 hours to detect the expression of IL-4 and IFN-γ thereof.
# (§2) In the Example, the culture medium for culturing B-6 spleen cells is the culture medium for culturing B-6 spleen cells conventionally in the art, and contains essential and non-essential amino acids, vitamins, glucose, hormones, growth factors, trace minerals and low-concentration fetal bovine serum (2%) and 5 mi penicillin/streptomycin solution. The buffer system of the medium is phosphate buffered saline solution PBS, and the pH value is 7.4 after equilibrating in a cell incubator containing 5% CO2.
# (§3) After the cells were harvested, they were stained with BD Bioscience's Cytofix/Cytoperm kit and detected by flow cytometry.
# [2] = Blood detection after feeding mice; assay type: in vivo; set-up: red blood cell: unit not given here
# Source text: Mice, which were used as a model, were fed with the esterified selenium polysaccharide prepared by the present invention continuously at a selenium dose of 2 to 5 micrograms of selenium/day for 2 weeks. A polysaccharide without the esterified selenium was used as a control. […] The above-mentioned detection data became stable starting from week 5.
# [3] = test system: superoxide dismutase (SOD); assay: Serum SOD activity after feeding chicks; assay type: in vivo; settings: 5 micrograms of selenium/day
# Experimental: (§4) Chicks, which were used as a model, were fed with the esterified selenium polysaccharide of the present invention continuously at a dose of 5 micrograms of selenium/day after birth. A polysaccharide without the esterified selenium was used as a control. On days 7, 14, 21, and 28 after feeding, the assay of the activity of glutathione peroxidase (GSH-Px) and superoxide dismutase (SOD) was performed (using commercially available kits EnzyChrom™ Glutahione Peroxidase Assay Kit and MIBio Mouse superoxide dismutase (SOD) kit for completion of the assay).
# [4] = test system: IFN-γ; assay: IFN-γ expression in B-6 splenocytes, flow cytometry; assay type: cell-based; settings: 2 to 5 micrograms selenium/mL, 48 hours, compared with 1,3-glucose hexasaccharide
# Experimental: as §1, §2, §3
# [5] = test system: glutathione peroxidase (GSH-Px); assay: Serum GSH-Px activity after feeding chicks; assay type: in vivo; settings: 5 micrograms of selenium/day
# Experimental: as §4
# [6] = fed 2 to 5 micrograms of selenium/day, week 3 to week 6
substance,measurement,setting,value
esterified selenium polysaccharide,increase of maximum expression of IL-4,[1],60%
same,Selenium content in serum,"[2]; Week 1, 2 μg/day selenium",0.4 µg/L
same,red blood cell,"[2]; Week 1, 2 μg/day selenium",9.58 ×10^6
same,white blood cell,"[2]; Week 1, 2 μg/day selenium",7260 mL⁻¹
same,Selenium content in serum,"[2]; Week 1, 5 μg/day selenium",0.7 µg/L
same,red blood cell,"[2]; Week 1, 5 μg/day selenium",9.66 ×10^6
same,white blood cell,"[2]; Week 1, 5 μg/day selenium",7290 mL⁻¹
same,Selenium content in serum,"[2]; Week 3, 2 μg/day selenium",2.9 µg/L
same,red blood cell,"[2]; Week 3, 2 μg/day selenium",9.75 ×10^6
same,white blood cell,"[2]; Week 3, 2 μg/day selenium",7360 mL⁻¹
same,Selenium content in serum,"[2]; Week 3, 5 μg/day selenium",4.5 µg/L
same,red blood cell,"[2]; Week 3, 5 μg/day selenium",9.97 ×10^6
same,white blood cell,"[2]; Week 3, 5 μg/day selenium",7570 mL⁻¹
same,Selenium content in serum,"[2]; Week 4, 2 μg/day selenium",6.1 µg/L
same,red blood cell,"[2]; Week 4, 2 μg/day selenium",10.5 ×10^6
same,white blood cell,"[2]; Week 4, 2 μg/day selenium",7590 mL⁻¹
same,Selenium content in serum,"[2]; Week 4, 5 μg/day selenium",6.8 µg/L
same,red blood cell,"[2]; Week 4, 5 μg/day selenium",10.5 ×10^6
same,white blood cell,"[2]; Week 4, 5 μg/day selenium",7910 mL⁻¹
same,Selenium content in serum,"[2]; Week 5, 2 μg/day selenium",6.9 µg/L
same,red blood cell,"[2]; Week 5, 2 μg/day selenium",11.1 ×10^6
same,white blood cell,"[2]; Week 5, 2 μg/day selenium",7960 mL⁻¹
same,Selenium content in serum,"[2]; Week 5, 5 μg/day selenium",7.3 µg/L
same,red blood cell,"[2]; Week 5, 5 μg/day selenium",11.4 ×10^6
same,white blood cell,"[2]; Week 5, 5 μg/day selenium",7990 mL⁻¹
same,Selenium content in serum,"[2]; Week 6, 2 μg/day selenium",7.0 µg/L
same,red blood cell,"[2]; Week 6, 2 μg/day selenium",11.2 ×10^6
same,white blood cell,"[2]; Week 6, 2 μg/day selenium",7960 mL⁻¹
same,Selenium content in serum,"[2]; Week 6, 5 μg/day selenium",7.3 µg/L
same,red blood cell,"[2]; Week 6, 5 μg/day selenium",11.5 ×10^6
same,white blood cell,"[2]; Week 6, 5 μg/day selenium",7990 mL⁻¹
same,increase of red blood cells,[2]; [6],20%
same,increase of selenium content in serum,[2]; [6],more than 30%
same,increase of white blood cells,[2]; [6],10%
same,Serum SOD,[3]; Day 1,180 U/mg
same,Serum SOD,[3]; Day 7,191 U/mg
same,Serum SOD,[3]; Day 14,195 U/mg
same,Serum SOD,[3]; Day 21,190 U/mg
same,Serum SOD,[3]; Day 28,187 U/mg
same,increase of SOD at maximum,[3]; maximum on days 7-14,12%
same,increase of maximum expression of IFN-γ,[4],36%
same,Serum GSH-Px,[5]; Day 1,1869 U/mg
same,Serum GSH-Px,[5]; Day 7,1879 U/mg
same,Serum GSH-Px,[5]; Day 14,1975 U/mg
same,Serum GSH-Px,[5]; Day 21,2150 U/mg
same,Serum GSH-Px,[5]; Day 28,2090 U/mg
same,increase of chick GHS-Px activity at maximum,[5]; maximum on days 14-21,15%

# From patent US11345761B2, “Esterified selenium polysaccharide and preparation method and use therefor” (AI-MAY ZHONG KE SELENIUM TECHNOLOGY (TIANJIN) CO., LTD, priority 2018, dated 2022)
